Key:
Type in all cases: physicochemical
[1] = Solubility test of the additive alone in dichloromethane/methanol mixed solvent (visual, after 4 days); conditions: for Solubility S0 (solids weight concentration at the dissolution limit): CH2Cl2/CH3OH 87/13
Method: The solubility of the functional additives was measured as follows.
1. Solutions were prepared by adjusting each concentration in a 50 cc screw cap bottle.
2. Allowed to stand at room temperature for 4 days. Here, the results of the solubility changed between 1 day and 4 days in some cases, and evaluation of the solubility was carried out after 4 days as a time when equilibrium was reached.
3. Samples were prepared in the same manner at other temperatures (20° C., 35° C.), and the solubility after allowing to stand for 4 days was visually inspected.
Predetermined amounts of Example Compounds I-(51) and I-(2) were weighed into a mixed solvent of dichloromethane and methanol, and the solubility was measured by changing the mixing ratio of the organic solvents.
The solubility (solids weight concentration at the dissolution limit was calculated as (C1+C2)/2 when the concentration limit at which it could be dissolved was C1 and the concentration limit at which it could not be dissolved was C2) of the retardation control agent in a mixed solvent having an initial methylene chloride/methanol composition ratio of 87/13 was defined as S0, and the solubility of the retardation control agent when the solvent composition changed, during drying, to 74/26 where the methanol wt % was the maximum was defined as S1. The temperature at which the solubility was measured is denoted by the figure in brackets.

[2] = Measurement of micro heat of solution (multi-purpose calorimeter MPC-110); conditions: for Degree of stabilization: Table 15; for Heat of solution ΔH0: solvent alone, 26.0° C.
Method: (2 Measurement of Micro Heat of Solution)
The heat of solution (dissolution enthalpy ΔH) of functional additives was measured as follows, using a multi-purpose calorimeter (MPC-110) manufactured by Tokyo Rikou as a micro heat of solution measuring instrument.
1. Solvent liquids and concentrated solutions were prepared beforehand in 1 L bottles.
2. Preparation of ampoule tubes
(1) Additives (powdered solid) were ground by a mortar and the granules were made uniform.
(2) A required amount (252 mg) of the additive to be measured was weighed into an ampoule tube for measurement of the micro heat of solution.
(3) The neck of the ampoule tube was heated sufficiently by a gas burner so as to seal the ampoule tube.
3. 50 g of the prepared solvent liquid or the concentrated solution was weighed into a measuring vessel. This amount was selected as an amount sufficient to immerse the ampoule tube in the solvent liquid when set in the measuring instrument.
4. The ampoule tube was set in the measuring instrument, which was equipped with an ampoule sealing mechanism, the measuring vessel was hermetically sealed with the ampoule sealing mechanism after confirming that the ampoule tube was immersed in the solvent liquid, it was placed in a constant temperature bath (26.0° C.), and stirring was started.
5. After confirming that the measuring instrument placed in the constant temperature bath had reached equilibrium temperature (about 8 to 12 hours) the ampoule tube was broken so as to mix the additive with the solvent liquid or the concentrated solution.
6. The total amount of heat generated was recorded.
7. The Joule's heat generated was measured by applying a known voltage to the measurement system for an appropriate time, and the recorded chart area for each measurement cell was calibrated using a known amount of heat.
8. The heat of solution of the sample was calculated from the Joule's heat and the measured sample area.
Shown in Table 11 are the solvent composition (wt %) and the solids composition (parts by weight) of the mother liquor when measuring the heat of solution, the type of retardation control agent sealed in the ampoule tube (Example Compounds I-(51) or I-(2)), and the results of measurement of the heat of solution.
The identification symbols of elements constituting the system are as follows: a denotes triacetylcellulose/plasticizer, b denotes triacetylcellulose, and c denotes plasticizer. For example, 2-87a denotes that the retardation control agent is the Example Compound I-(2), the solvent composition (wt %) is dichloromethane/methanol=87/13, and the solids constituting the system are triacetylcellulose and the plasticizer.
The heat of solution ΔH0 denotes the heat of solution (heat absorption) generated when there is no solid in the system (before breaking the ampoule tube) and the retardation control agent is dissolved in a solvent alone. […] The solids concentration of the system when saturation starts is defined as the saturation heat of solution solids concentration (wt %).
In all cases, when the solids concentration of the system is increased, the heat of solution either remains unchanged from that at a solids concentration of 0 wt % (the saturation heat of solution solids concentration is 0) or decreases and becomes saturated. […] This degree of stabilization is expressed as ΔH0−ΔHs, which is the decrease in the heat of solution.

[3] = Solubility test of the additive alone in dichloromethane/methanol mixed solvent (visual, after 4 days)
[4] = 87/13, solids b: triacetylcellulose only
[5] = 87/13, solids c: plasticizer only

With `COc1ccc(Nc2nc(Nc3cccc(C)c3)nc(Nc3cccc(C)c3)n2)cc1` [Example Compound I-(2)] the “Ratio S1/S0” value ([1]; 20° C., 87/13 vs 74/26) was 0.636, the “Solubility S0 (solids weight concentration at the dissolution limit)” value ([1]; 20° C.) was 27.5 wt % and the “Ratio S1/S0” value ([1]; 25° C., 87/13 vs 74/26) was 0.636. For the same compound, the “Difference S0 − S1” value ([1]; 35° C., 87/13 vs 74/26) was 10 wt %, the “Ratio S1/S0” value ([1]; 35° C., 87/13 vs 74/26) was 0.692 and the “Solubility S1 (solids weight concentration at the dissolution limit)” value ([1]; 35° C., CH2Cl2/CH3OH 74/26) was 22.5 wt %. The “Solubility S0 (solids weight concentration at the dissolution limit)” value ([1]; 35° C.) was 32.5 wt %, the “Degree of stabilization (ΔH0 − ΔHs)” value ([2]; 50/50, solids a) was 0 kcal/mol and the “Saturation heat of solution solids concentration” value (shortened to “Saturation heat”) ([2]; 50/50, solids a) was 0 wt %. For the same compound, the “Heat of solution ΔHs” value ([2]; 50/50, solids a: triacetylcellulose/plasticizer) was 6.16 kcal/mol, the “Degree of stabilization (ΔH0 − ΔHs)” value ([2]; 74/26, solids a) was 0 kcal/mol and the “Saturation heat” value ([2]; 74/26, solids a) was 0 wt %. The “Heat of solution ΔHs” value ([2]; 74/26, solids a: triacetylcellulose/plasticizer) was 6.97 kcal/mol, the “Degree of stabilization (ΔH0 − ΔHs)” value ([2]; 87/13, solids a: triacetylcellulose/plasticizer) was 1.4 kcal/mol and the “Heat of solution ΔHs” value ([2]; 87/13, solids a: triacetylcellulose/plasticizer (TPP/BDP)) was 6.1 kcal/mol. The “Degree of stabilization (ΔH0 − ΔHs)” value [2, 4] was 2 kcal/mol, the “Heat of solution ΔHs” value [2, 4] was 5.5 kcal/mol and the “Degree of stabilization (ΔH0 − ΔHs)” value [2, 5] was 1.1 kcal/mol. For the same compound, the “Heat of solution ΔHs” value [2, 5] was 6.4 kcal/mol, the “Degree of stabilization (ΔH0 − ΔHs)” value ([2]; 92/8, solids a) was 1.38 kcal/mol and the “Saturation heat” value ([2]; 92/8, solids a) was 7 wt %. The “Heat of solution ΔHs” value ([2]; 92/8, solids a: triacetylcellulose/plasticizer) was 5.83 kcal/mol, the “Degree of stabilization (ΔH0 − ΔHs)” value ([2]; 100/0, solids a) was 1.35 kcal/mol and the “Saturation heat” value ([2]; 100/0, solids a) was 10 wt %. The “Heat of solution ΔHs” value ([2]; 100/0, solids a: triacetylcellulose/plasticizer) was 5.29 kcal/mol, the Degree of stabilization ([2]; dope Table 12, solvent composition 87/13) was 1.40 kcal/mol and the Degree of stabilization ([2]; dope Table 13, solvent composition 92/8) was 1.38 kcal/mol. For the same compound, the Degree of stabilization ([2]; dope Table 14, solvent composition 74/26) was 0 kcal/mol, the “Stabilization by solids in the system (in words)” value ([2]; case c: only the plasticizer present in the system) was “is stabilized” and the “Heat of solution ΔH0” value ([2]; dichloromethane/methanol 50/50 wt %) was 6.16 kcal/mol. The “Heat of solution ΔH0” value ([2]; dichloromethane/methanol 74/26 wt %) was 6.97 kcal/mol, the “Heat of solution ΔH0” value ([2]; dichloromethane/methanol 87/13 wt %) was 7.5 kcal/mol and the “Heat of solution ΔH0” value ([2]; dichloromethane/methanol 92/8 wt %) was 7.21 kcal/mol. For the same compound, the “Heat of solution ΔH0” value ([2]; dichloromethane/methanol 100/0 wt %) was 6.64 kcal/mol, the “Solubility in dichloromethane/methanol mixed solvent (in words)” value ([3]; 20° C. and 35° C.) was “excellent” and the “Difference S0 − S1” value ([3]; 20° C., 87/13 vs 74/26) was 10 wt %. For the same compound, the “Difference S0 − S1” value ([3]; 20° C., 92/8 vs 91/9) was 0 wt %, the “Ratio S1/S0” value ([3]; 20° C., 92/8 vs 91/9) was 1.000 and the “Solubility S1 (solids weight concentration at the dissolution limit)” value ([3]; 20° C., CH2Cl2/CH3OH 74/26) was 17.5 wt %. For the same compound, the “Solubility S1 (solids weight concentration at the dissolution limit)” value ([3]; 20° C., CH2Cl2/CH3OH 91/9) was 32.5 wt %, the “Solubility S0 (solids weight concentration at the dissolution limit)” value ([3]; 20° C., CH2Cl2/CH3OH 92/8) was 32.5 wt % and the “Difference S0 − S1” value ([3]; 25° C., 87/13 vs 74/26) was 10 wt %. For the same compound, the “Difference S0 − S1” value ([3]; 25° C., 92/8 vs 91/9) was 0 wt %, the “Ratio S1/S0” value ([3]; 25° C., 92/8 vs 91/9) was 1.000 and the “Solubility S1 (solids weight concentration at the dissolution limit)” value ([3]; 25° C., CH2Cl2/CH3OH 74/26) was 17.5 wt %. The “Solubility S0 (solids weight concentration at the dissolution limit)” value ([3]; 25° C., CH2Cl2/CH3OH 87/13) was 27.5 wt %, the “Solubility S1 (solids weight concentration at the dissolution limit)” value ([3]; 25° C., CH2Cl2/CH3OH 91/9) was 32.5 wt % and the “Solubility S0 (solids weight concentration at the dissolution limit)” value ([3]; 25° C., CH2Cl2/CH3OH 92/8) was 32.5 wt %. The “Difference S0 − S1” value ([3]; 35° C., 92/8 vs 91/9) was 0 wt %, the “Ratio S1/S0” value ([3]; 35° C., 92/8 vs 91/9) was 1.000 and the “Solubility S1 (solids weight concentration at the dissolution limit)” value ([3]; 35° C., CH2Cl2/CH3OH 91/9) was 32.5 wt %. For the same compound, the “Solubility S0 (solids weight concentration at the dissolution limit)” value ([3]; 35° C., CH2Cl2/CH3OH 92/8) was 32.5 wt %.
